Reference: publication PMC9706920, “Aryloxypropanolamine targets amyloid aggregates and reverses Alzheimer-like phenotypes in Alzheimer mouse models” (Alzheimer's Research & Therapy, 2022)

Experiments:
5XFAD mice = experiment: Western blot of brain lysates of 5XFAD mice; type: in vivo, mouse; details: 50 mg/kg/day, 5 weeks
Protocol: To test the in vivo efficacy of YIAD001 and YIAD002, female 5XFAD mice (n = 25) and female wildtype mice (n = 7) were assessed at the age of 4.5 months. YIAD compounds were dissolved in DMSO and diluted in drinking water to a final concentration of 50 mg/kg/day (5% DMSO, 5% Tween) for oral administration. The three compounds, YIAD001, YIAD002, and YIAD003, were freely administered via drinking water to 4.5-month-old 5XFAD mice (n = 6 for each group) for 5 weeks. As a control, 5% DMSO, 5% Tween in drinking water was provided ad libitum to littermate 5XFAD mice (n = 7) and wildtype mice (n = 7) for 5 weeks.
After the administration period, the mice were deeply anaesthetized with 4% avertin through intraperitoneal injection and transcardially perfused with 0.9% saline. Subsequently, the mice were sacrificed for brain excision. Each collected brain was divided through the mid-sagittal section; the hippocampal and cortical regions were dissected from one half and stored at −80°C for subsequent brain lysates, while the other half was immersed in 4% paraformaldehyde (pH 7.4) for 24 h and 30% sucrose for 48 h at 4°C and subsequently deep-froze at −80°C for immunohistochemistry.
Isolated cortical and hippocampal tissue samples were homogenized in ice-cold RIPA buffer with protease inhibitor cocktail and phosphatase inhibitor cocktail. Lysed tissues were incubated in ice for 30 min and subsequently centrifuged at 14,000 rpm at 4°C for 30 min. The supernatants of the brain lysates were collected and soluble protein concentrations were quantified with the Pierce BCA protein assay kit (Thermo Fisher Scientific, USA).
Western blot analysis was performed to assess YIAD002-induced alterations of protein biomarkers in 5XFAD mice brain lysates. Twenty micrograms of lysate samples were loaded onto 12% tris-tricine gels, separated by SDS-PAGE, and transferred to nitrocellulose membranes. Membranes were blocked by 5% skim milk or 5% BSA in TBS-T. The following primary antibodies were used for immunoblotting: anti-6E10 for APP (1:1000, Biolegend 803003), anti-AT8 (1:1000, Invitrogen MN1020), anti-Tau (1:1000, Santa Cruz SC390476), anti-ionized calcium-binding adapter molecule (Iba1) (1:1000, CST, 17198S), anti-glial fibrillar acidic protein (GFAP) (1:2000, Milipore AB5541), anti-postsynaptic density protein 95 (PSD95) (1:1000, CST 3450S), anti-synaptophysin (1:1000, Milipore MAB5258), and anti-β-Actin (1:10,000, Milipore MAB1501). Membranes were incubated with primary antibodies at 4°C overnight and probed with HRP-conjugated IgG antibodies (1:10,000) in RT for an hour. Proteins were detected using an ECL kit (Thermo Fisher Scientific, USA). Membranes were washed with TBS-T in between steps, three times for 10 min.

Aβ(1–42) aggregates = target: T1, Aβ(1–42) aggregates (Homo sapiens, UniProt P05067); experiment: SDS-PAGE with PICUP and silver staining; type: biochemical; details: 500 μM compound, aggregated Aβ(1–42)
T1 construct: made in house; host or cells: chemical synthesis (Fmoc solid phase peptide synthesis)
Protocol: SDS-PAGE with photo-induced cross-linking of unmodified proteins (PICUP) and silver staining was used to evaluate the disaggregating effects of YIAD001 and YIAD002 by visualizing the size distributions and band intensity of Aβ(1–42). Samples were prepared under the same conditions as the Aβ(1–42) disaggregation ThT fluorescence assay. Amyloid proteins in the samples from the aforementioned disaggregation assay were subjected to cross-linking, initiated by irradiation (three exposures, each for 1 second) in the presence of tris(2,2′-bipyridyl)dichlororuthenium(II) hexahydrate (Ru(Bpy)) (1 mM) and 1 μL of ammonium persulfate (20 mM). Reactions were immediately quenched with β-mercaptoethanol and boiled for 5 min at 95°C. After cross-linking the samples, we separated amyloid species by SDS-PAGE on a 15% tris-tricine gel and performed silver staining according to the PlusOne Silver Staining kit protocol (GE Healthcare, USA).

Aβ(1–42) = target: T2, Aβ(1–42) (Homo sapiens, UniProt P05067); experiment: ThT fluorescence Aβ(1–42) aggregation inhibition assay; type: biochemical; details: compounds at 0.5, 5, 50, 500 μM co-incubated with monomeric Aβ(1–42) 25 μM, 37°C, 3 days; concentration of the printed value not stated
T2 construct: Synthesized monomeric Aβ(1–42), […]; […]; IA; made in house; host or cells: chemical synthesis (Fmoc solid phase peptide synthesis)
Protocol: ThT fluorescence was used to assess the in vitro inhibition of Aβ(1–42) and disaggregation of Aβ(1–42), Aβ(1–40), Aβ(pE3-42), recombinant tau K18, and tau repeats R1, R2, R3, R4 by YIAD compounds. In house synthetic Aβ(1–42) was dissolved in DMSO (1 mM, 100% DMSO) and diluted to 20-fold in deionized water to make 50 μM Aβ(1–42) stocks (5% DMSO). YIAD compounds were first dissolved in DMSO (100 mM, 100% DMSO) and serially diluted with deionized water to make YIAD stocks with concentrations of 1, 10, 100, and 1000 μM (10% DMSO). For the Aβ(1–42) inhibition assay, monomeric Aβ(1–42) stocks and YIAD stocks were co-incubated at 37°C for 3 days. For Aβ(1–42) disaggregation assay, monomeric Aβ(1–42) stocks were preincubated at 37°C for three days to form Aβ(1–42) aggregates, and subsequently, YIAD stocks were added for an additional 3 days. For Aβ(1-40) disaggregation assays, Aβ(1–40) (50 μM, 5% DMSO) was preincubated at 37°C for 3 days to induce aggregation, and co-incubated with YIAD001 and YIAD002 for an additional 3 days. For Aβ(pE3-42) disaggregation assays, in house synthetic Aβ(pE3-42) (50 μM, 5% DMSO) was preincubated at 37°C for 1 day and co-incubated with YIAD002 for an additional 3 days. For tau K18 disaggregation assay, recombinant tau K18 fragments (35 μM) were dissolved in PBS with 0.1 mg/mL of heparin and 100 μM of DTT, then pre-aggregated at 37°C for 3 days. Then, YIAD stocks were added to aggregated K18 fragments for an additional 3 days. For tau repeat disaggregation assays, tau repeats (R1, R2, R3, R4) (35 μM) were dissolved in PBS with 0.1 mg/mL of heparin and 100 μM of DTT, then pre-aggregated at 37°C for 1 day. Then, YIAD002 was added to aggregated repeats for an additional 3 days. Prior to fluorescence intensity measurement, ThT solution (5 μM) was prepared by dissolving ThT, purchased from Sigma-Aldrich (MO, USA) in 50 mM glycine buffer (pH 8.5). To quantify the effect of inhibition and disaggregation, 25 μL of all samples and 75 μL of ThT solution were loaded into a half-area 96-well black plate in triplicate.

T1 sequence (P05067 672-713 limits assumed): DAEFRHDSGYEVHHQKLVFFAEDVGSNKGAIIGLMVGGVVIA
T2 sequence (P05067 672-713 limits assumed): as above

CCC(C)(C)c1ccc(OCC(O)CN2CCCC2)c(C(C)(C)CC)c1.Cl (stereo not shown) [YIAD002, 1-(3-(2,4-Di-tert-pentylphenoxy)-2-hydroxypropyl)pyrrolidin-1-ium chloride]
Cortical and hippocampal APP levels (5XFAD mice): did not induce significant shift
Reduction of GFAP expression (5XFAD mice; cortical lysates, vs vehicle): 32.76%
Cortical total tau levels (5XFAD mice; vs vehicle): not affected
Increase of cortical PSD95 levels (5XFAD mice; vs vehicle): 51.97%
Increase of cortical synaptophysin levels (5XFAD mice; vs vehicle): 57.47%
Reduction of cortical Iba1 levels (5XFAD mice; vs vehicle): 32.11%
Reduction of cortical phosphorylated tau (AT8) (5XFAD mice; vs vehicle): 35.29%
melting point: 179.8 to 180.7 °C
Size distribution of Aβ(1–42) bands (fibrils, monomers) (Aβ(1–42) aggregates): reduced fibrils and increased monomers
Inhibition of Aβ(1–42) fibrillation (ThT fluorescence) (Aβ(1–42)): 98.15%

CCC(C)(C)c1ccc(OCC(O)CN2CCOCC2)c(C(C)(C)CC)c1.Cl (stereo not shown) [YIAD001, 4-(3-(2,4-Di-tert-pentylphenoxy)-2-hydroxypropyl)morpholin-4-ium chloride]
Cortical and hippocampal APP levels (5XFAD mice): did not induce significant shift
Cortical total tau levels (5XFAD mice; vs vehicle): not affected
Increase of cortical PSD95 levels (5XFAD mice; vs vehicle): 44.59%
Increase of cortical synaptophysin levels (5XFAD mice; vs vehicle): 38.68%
Reduction of cortical Iba1 levels (5XFAD mice; vs vehicle): 26.08%
Reduction of cortical phosphorylated tau (AT8) (5XFAD mice; vs vehicle): did not affect
melting point: 192.5 to 193.1 °C
Size distribution of Aβ(1–42) bands (fibrils, monomers) (Aβ(1–42) aggregates): reduced fibrils and increased monomers
Inhibition of Aβ(1–42) fibrillation (ThT fluorescence) (Aβ(1–42)): 82.55%
